According to patent US20240228489A1, “POSITIVE ALLOSTERIC MODULATORS OF THE MUSCARINIC ACETYLCHOLINE RECEPTOR M1” (Vanderbilt University, priority 2021, published 2024):

Assays:
human mAChR M1 [1] = target: T1, human mAChR M1 (Homo sapiens, UniProt P11229); test: mAChR M1 cell-based functional assay (calcium mobilization), agonist mode: compound alone, Emax relative to acetylcholine maximum; conditions: for Agonist Activity Human M1 EC50 / EC50: human mAChR M1; for Emax: relative to the maximum for acetylcholine
T1 sequence (P11229 1-460): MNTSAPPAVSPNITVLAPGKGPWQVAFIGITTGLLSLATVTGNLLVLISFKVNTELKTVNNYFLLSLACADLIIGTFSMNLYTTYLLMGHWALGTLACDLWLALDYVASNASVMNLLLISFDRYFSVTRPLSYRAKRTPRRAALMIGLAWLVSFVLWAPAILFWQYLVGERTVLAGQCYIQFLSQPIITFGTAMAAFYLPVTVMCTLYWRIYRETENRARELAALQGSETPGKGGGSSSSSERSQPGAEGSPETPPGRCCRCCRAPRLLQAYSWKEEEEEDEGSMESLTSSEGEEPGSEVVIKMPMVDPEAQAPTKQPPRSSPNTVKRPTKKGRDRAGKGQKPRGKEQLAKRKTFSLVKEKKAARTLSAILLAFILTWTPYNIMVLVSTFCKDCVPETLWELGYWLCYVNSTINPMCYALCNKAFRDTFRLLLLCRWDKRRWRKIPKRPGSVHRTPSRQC
Outline: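 CHO-K1 cells stably expressing hM1 were loaded with Fluo-4 AM, and calcium flux was read as fluorescence ratio. Compound was added alone from an 11-point 1:3 curve, and the agonist response was fitted with a four-parameter logistic. Emax is expressed relative to the acetylcholine maximum.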

human mAChR M1 [2] = target: T1, human mAChR M1; test: mAChR M1 cell-based functional assay (calcium mobilization), PAM mode: increase in the EC20 acetylcholine response
Outline: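 CHO-K1 cells stably expressing hM1, Fluo-4 loaded, read by FDSS calcium flux at 1 Hz. Compound (11-point 1:3 CRC) added at 4 s, EC20 acetylcholine at 144 s, EC80 at 230 s. PAM activity taken as concentration-dependent increase in EC20 ACh response, fitted by four-parameter logistic for EC50/Emax.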

SMILES | Agonist Activity Human M1 EC50 (human mAChR M1 [1]) | Emax (human mAChR M1 [1]) | EC50 (human mAChR M1 [2]) | Emax (human mAChR M1 [2]) | EC50 (human mAChR M1 [1])
[2H]C1([2H])c2ncccc2C(=O)N1Cc1c(F)cc(-c2cnc3nn(C([2H])([2H])[2H])cc3c2)cc1F [Compound 115, 6-(2,6-difluoro-4-(2-(methyl-d3)-2H-pyrazolo[3,4-b]pyridin-5-yl)benzyl)-6,7-dihydro-5H-pyrrolo[3,4-b]pyridin-5-one-7,7-d2] | Inactive | 6% | 680 nM | 68% | 
[2H]C1([2H])c2ncccc2C(=O)N1Cc1ccc(-c2ccc(OCCOC)c3nn(C)cc23)cc1F [Compound 116, 6-(2-fluoro-4-(7-(2-methoxyethoxy)-2-methyl-2H-indazol-4-yl)benzyl)-6,7-dihydro-5H-pyrrolo[3,4-b]pyridin-5-one-7,7-d2] |  | 21% | 287 nM | 72% | 9430 nM
[2H]C1([2H])c2ncccc2C(=O)N1Cc1ccc(-c2ccc(OCCOC)c3nn(C([2H])([2H])[2H])cc23)cc1F [Compound 117, 6-(2-fluoro-4-(7-(2-methoxyethoxy)-2-(methyl-d3)-2H-indazol-4-yl)benzyl)-6,7-dihydro-5H-pyrrolo[3,4-b]pyridin-5-one-7,7-d2] |  | 21% | 317 nM | 70% | ≥ 10000 nM
[2H]C1([2H])c2ncccc2C(=O)N1Cc1ccc(-c2cnc3nn(C([2H])([2H])[2H])cc3c2)cc1F [Compound 118, 6-(2-fluoro-4-(2-(methyl-d3)-2H-pyrazolo[3,4-b]pyridin-5-yl)benzyl)-6,7-dihydro-5H-pyrrolo[3,4-b]pyridin-5-one-7,7-d2] |  | 16% | 527 nM | 66% | ≥ 10000 nM
[2H]C1([2H])c2ncccc2C(=O)N1Cc1c(F)cc(-c2cncc3nn(C)cc23)cc1F [Compound 119, 6-(2,6-difluoro-4-(2-methyl-2H-pyrazolo[3,4-c]pyridin-4-yl)benzyl)-6,7-dihydro-5H-pyrrolo[3,4-b]pyridin-5-one-7,7-d2] | Inactive | 3% | ≥ 10000 nM | 63% | 
[2H]C1([2H])c2ncccc2C(=O)N1Cc1ccc(-c2cncc3nn(C)cc23)cc1F [Compound 120, 6-(2-fluoro-4-(2-methyl-2H-pyrazolo[3,4-c]pyridin-4-yl)benzyl)-6,7-dihydro-5H-pyrrolo[3,4-b]pyridin-5-one-7,7-d2] | Inactive | 2% | 2820 nM | 66% | 
[2H]C1([2H])c2ncccc2C(=O)N1Cc1c(F)cc(-c2cnc(OC)c3nn(C)cc23)cc1F [Compound 121, 6-(2,6-difluoro-4-(7-methoxy-2-methyl-2H-pyrazolo[3,4-c]pyridin-4-yl)benzyl)-6,7-dihydro-5H-pyrrolo[3,4-b]pyridin-5-one-7,7-d2] | Inactive | 3% | 2920 nM | 55% | 
[2H]C1([2H])c2ncccc2C(=O)N1Cc1c(F)cc(-c2ccc(C3CC3)c3nn(C)cc23)cc1F [Compound 122, 6-(4-(7-cyclopropyl-2-methyl-2H-indazol-4-yl)-2,6-difluorobenzyl)-6,7-dihydro-5H-pyrrolo[3,4-b]pyridin-5-one-7,7-d2] | Inactive | 3% | 789 nM | 77% | 
[2H]C1([2H])c2ncccc2C(=O)N1Cc1c(F)cc(-c2ccc(C(F)F)c3nn(C)cc23)cc1F [Compound 123, 6-(4-(7-(difluoromethyl)-2-methyl-2H-indazol-4-yl)-2,6-difluorobenzyl)-6,7-dihydro-5H-pyrrolo[3,4-b]pyridin-5-one-7,7-d2] |  | 11% | 490 nM | 80% | 7930 nM
[2H]C1([2H])c2ncccc2C(=O)N1Cc1c(F)cc(-c2ccc(OC3CC3)c3nn(C)cc23)cc1F [Compound 124, 6-(4-(7-cyclopropoxy-2-methyl-2H-indazol-4-yl)-2,6-difluorobenzyl)-6,7-dihydro-5H-pyrrolo[3,4-b]pyridin-5-one-7,7-d2] |  | 32% | 243 nM | 74% | 8270 nM
[2H]C1([2H])c2ncccc2C(=O)N1Cc1c(F)cc(-c2ccc(OC3CCC3)c3nn(C)cc23)cc1F [Compound 125, 6-(4-(7-cyclobutoxy-2-methyl-2H-indazol-4-yl)-2,6-difluorobenzyl)-6,7-dihydro-5H-pyrrolo[3,4-b]pyridin-5-one-7,7-d2] |  | 14% | 382 nM | 72% | ≥ 10000 nM
[2H]C1([2H])c2ncc(OCCc3ccccn3)cc2C(=O)N1Cc1c(F)cc(-c2cccc3nn(C([2H])([2H])[2H])cc23)cc1F [Compound 126, 6-(2,6-difluoro-4-(2-(methyl-d3)-2H-indazol-4-yl)benzyl)-3-(2-(pyridin-2-yl)ethoxy)-6,7-dihydro-5H-pyrrolo[3,4-b]pyridin-5-one-7,7-d2] |  | 14% | 423 nM | 65% | ≥ 10000 nM
[2H]C1([2H])c2ncccc2C(=O)N1Cc1c(F)cc(-c2ccc(OC3CCOC3)c3nn(C)cc23)cc1F (centres unmarked) [Compound 127, 6-(2,6-difluoro-4-(2-methyl-7-((tetrahydrofuran-3-yl)oxy)-2H-indazol-4-yl)benzyl)-6,7-dihydro-5H-pyrrolo[3,4-b]pyridin-5-one-7,7-d2] |  | 21% | 486 nM | 65% | 8400 nM
[2H]C1([2H])c2ncccc2C(=O)N1Cc1c(F)cc(-c2ccc(OC3CCOC3)c3nn(C([2H])([2H])[2H])cc23)cc1F (centres unmarked) [Compound 128, 6-(2,6-difluoro-4-(2-(methyl-d3)-7-((tetrahydrofuran-3-yl)oxy)-2H-indazol-4-yl)benzyl)-6,7-dihydro-5H-pyrrolo[3,4-b]pyridin-5-one-7,7-d2] |  | 18% | 428 nM | 63% | 6070 nM
[2H]C1([2H])c2ncccc2C(=O)N1Cc1c(F)cc(-c2ccc(OCc3ccccc3)c3nn(C)cc23)cc1F [Compound 129, 6-(4-(7-(benzyloxy)-2-methyl-2H-indazol-4-yl)-2,6-difluorobenzyl)-6,7-dihydro-5H-pyrrolo[3,4-b]pyridin-5-one-7,7-d2] | Inactive | 1% | 1760 nM | 65% | 
[2H]C1([2H])c2ncccc2C(=O)N1Cc1c(F)cc(-c2ccc(O)c3nn(C)cc23)cc1F [Compound 130, 6-(2,6-Difluoro-4-(7-hydroxy-2-methyl-2H-indazol-4-yl)benzyl)-6,7-dihydro-5H-pyrrolo[3,4-b]pyridin-5-one-7,7-d2] |  | 52% | 123 nM | 82% | 4560 nM
[2H]C1([2H])c2ncccc2C(=O)N1Cc1c(F)cc(-c2ccc(OCCN(C)C)c3nn(C)cc23)cc1F [Compound 131, 6-(4-(7-(2-(dimethylamino)ethoxy)-2-methyl-2H-indazol-4-yl)-2,6-difluorobenzyl)-6,7-dihydro-5H-pyrrolo[3,4-b]pyridin-5-one-7,7-d2] | Inactive | 5% | 381 nM | 80% | 
